ChEMBL document CHEMBL4028801, “A multifactorial approach to hepatobiliary transporter assessment enables improved therapeutic compound development” (Toxicol Sci, 2013)
pIC50: −log10 of the molar value.

Key:
[1] = target: ATP-binding cassette sub-family C member 3 (Homo sapiens, UniProt O15438); test: Inhibition of human MRP3 overexpressed in Sf9 insect cell membrane vesicles assessed as uptake of [3H]-estradiol-17beta-D-glucuronide in presence of ATP and GSH measured after 10 mins by membrane vesicle transport assay; format: ADME, cell-based
Sequence of ATP-binding cassette sub-family C member 3 (O15438 whole entry): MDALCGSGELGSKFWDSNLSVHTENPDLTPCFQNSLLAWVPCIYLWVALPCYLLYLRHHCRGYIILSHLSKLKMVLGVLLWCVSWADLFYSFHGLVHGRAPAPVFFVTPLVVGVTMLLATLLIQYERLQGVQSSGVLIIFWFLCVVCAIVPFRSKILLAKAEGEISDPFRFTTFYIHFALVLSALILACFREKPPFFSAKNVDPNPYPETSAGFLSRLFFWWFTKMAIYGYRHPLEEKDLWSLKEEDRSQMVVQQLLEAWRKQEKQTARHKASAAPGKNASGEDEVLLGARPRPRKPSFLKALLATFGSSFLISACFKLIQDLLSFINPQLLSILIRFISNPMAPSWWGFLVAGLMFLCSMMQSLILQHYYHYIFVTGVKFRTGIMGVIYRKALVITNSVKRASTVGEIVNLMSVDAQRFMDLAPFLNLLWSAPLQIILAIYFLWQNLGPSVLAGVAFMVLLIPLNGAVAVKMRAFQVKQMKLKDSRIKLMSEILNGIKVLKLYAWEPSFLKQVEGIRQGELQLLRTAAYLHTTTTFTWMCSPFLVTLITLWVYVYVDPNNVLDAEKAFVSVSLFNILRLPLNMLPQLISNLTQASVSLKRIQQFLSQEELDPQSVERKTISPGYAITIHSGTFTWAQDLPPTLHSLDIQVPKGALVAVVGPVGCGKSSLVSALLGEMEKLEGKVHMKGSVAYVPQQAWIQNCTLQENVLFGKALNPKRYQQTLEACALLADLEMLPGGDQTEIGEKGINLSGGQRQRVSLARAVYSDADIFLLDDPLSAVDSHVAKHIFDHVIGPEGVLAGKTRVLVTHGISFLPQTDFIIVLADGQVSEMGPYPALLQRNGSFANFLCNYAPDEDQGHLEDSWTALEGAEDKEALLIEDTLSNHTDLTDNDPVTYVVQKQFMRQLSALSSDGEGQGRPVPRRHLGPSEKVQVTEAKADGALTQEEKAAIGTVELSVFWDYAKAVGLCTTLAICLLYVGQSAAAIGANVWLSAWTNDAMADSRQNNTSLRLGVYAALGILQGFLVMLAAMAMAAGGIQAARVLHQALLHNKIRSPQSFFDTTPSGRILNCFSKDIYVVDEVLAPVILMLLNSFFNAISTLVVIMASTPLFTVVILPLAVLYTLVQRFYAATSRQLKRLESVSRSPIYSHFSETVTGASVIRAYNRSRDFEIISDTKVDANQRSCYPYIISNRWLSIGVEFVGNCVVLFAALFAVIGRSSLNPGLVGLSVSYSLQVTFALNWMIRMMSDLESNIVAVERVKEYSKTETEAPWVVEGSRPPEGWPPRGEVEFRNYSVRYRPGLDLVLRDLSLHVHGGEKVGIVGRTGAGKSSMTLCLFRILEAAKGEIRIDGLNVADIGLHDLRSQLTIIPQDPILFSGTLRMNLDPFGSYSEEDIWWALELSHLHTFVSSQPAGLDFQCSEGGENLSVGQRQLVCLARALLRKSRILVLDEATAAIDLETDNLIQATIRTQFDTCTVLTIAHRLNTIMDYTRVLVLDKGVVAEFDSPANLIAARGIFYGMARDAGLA

[2] = Drug concentration at steady state in human at 10 mg, po QD after 24 hrs; details: in vivo
Bile salt export pump = Bile salt export pump (Homo sapiens, UniProt O95342); test: Inhibition of human BSEP overexpressed in Sf9 cell membrane vesicles assessed as uptake of [3H]-taurocholate in presence of ATP measured after 15 to 20 mins by membrane vesicle transport assay; format: ADME, cell-based
Sequence of Bile salt export pump (O95342 whole entry): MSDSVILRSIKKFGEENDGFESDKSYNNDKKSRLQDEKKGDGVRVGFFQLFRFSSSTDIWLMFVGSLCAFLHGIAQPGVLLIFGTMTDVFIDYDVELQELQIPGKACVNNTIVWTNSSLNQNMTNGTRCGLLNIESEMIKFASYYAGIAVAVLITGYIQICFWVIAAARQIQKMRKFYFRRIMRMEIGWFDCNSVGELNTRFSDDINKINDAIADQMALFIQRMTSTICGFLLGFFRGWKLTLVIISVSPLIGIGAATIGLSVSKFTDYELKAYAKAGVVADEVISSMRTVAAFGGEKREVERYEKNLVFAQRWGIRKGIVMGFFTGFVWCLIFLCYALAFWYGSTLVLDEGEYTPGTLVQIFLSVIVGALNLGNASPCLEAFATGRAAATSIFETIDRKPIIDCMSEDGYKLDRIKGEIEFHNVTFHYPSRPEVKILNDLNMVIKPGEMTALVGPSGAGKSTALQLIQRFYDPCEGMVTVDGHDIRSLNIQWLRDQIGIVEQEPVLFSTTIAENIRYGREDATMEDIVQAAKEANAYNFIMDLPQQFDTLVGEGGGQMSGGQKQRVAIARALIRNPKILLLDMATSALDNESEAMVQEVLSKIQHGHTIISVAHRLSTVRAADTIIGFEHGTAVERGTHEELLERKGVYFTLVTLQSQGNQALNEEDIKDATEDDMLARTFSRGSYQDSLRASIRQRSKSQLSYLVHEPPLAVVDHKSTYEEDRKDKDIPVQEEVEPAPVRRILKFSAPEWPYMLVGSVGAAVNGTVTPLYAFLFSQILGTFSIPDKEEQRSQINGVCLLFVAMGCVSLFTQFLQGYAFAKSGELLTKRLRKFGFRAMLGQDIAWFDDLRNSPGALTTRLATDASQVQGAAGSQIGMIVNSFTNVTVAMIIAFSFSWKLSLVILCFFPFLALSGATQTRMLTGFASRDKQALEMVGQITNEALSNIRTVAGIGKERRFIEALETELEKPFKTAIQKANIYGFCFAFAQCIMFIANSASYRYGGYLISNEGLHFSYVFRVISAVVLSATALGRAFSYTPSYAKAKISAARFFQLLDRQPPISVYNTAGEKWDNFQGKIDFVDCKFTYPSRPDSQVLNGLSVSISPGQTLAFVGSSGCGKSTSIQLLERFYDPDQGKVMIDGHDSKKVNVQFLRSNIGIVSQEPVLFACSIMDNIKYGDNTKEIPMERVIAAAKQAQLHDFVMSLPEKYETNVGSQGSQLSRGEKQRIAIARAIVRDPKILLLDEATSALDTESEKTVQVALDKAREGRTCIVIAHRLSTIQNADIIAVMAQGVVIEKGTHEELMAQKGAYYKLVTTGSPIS

clinical = details: human, in vivo, po, 10 mg
[3] = target: T1, ATP-binding cassette sub-family C member 4 (Homo sapiens, UniProt O15439); test: Inhibition of human MRP4 overexpressed in Sf9 cell membrane vesicles assessed as uptake of [3H]-estradiol-17beta-D-glucuronide in presence of ATP and GSH measured after 20 mins by membrane vesicle transport assay; format: ADME, cell-based
T1 sequence (O15439 whole entry): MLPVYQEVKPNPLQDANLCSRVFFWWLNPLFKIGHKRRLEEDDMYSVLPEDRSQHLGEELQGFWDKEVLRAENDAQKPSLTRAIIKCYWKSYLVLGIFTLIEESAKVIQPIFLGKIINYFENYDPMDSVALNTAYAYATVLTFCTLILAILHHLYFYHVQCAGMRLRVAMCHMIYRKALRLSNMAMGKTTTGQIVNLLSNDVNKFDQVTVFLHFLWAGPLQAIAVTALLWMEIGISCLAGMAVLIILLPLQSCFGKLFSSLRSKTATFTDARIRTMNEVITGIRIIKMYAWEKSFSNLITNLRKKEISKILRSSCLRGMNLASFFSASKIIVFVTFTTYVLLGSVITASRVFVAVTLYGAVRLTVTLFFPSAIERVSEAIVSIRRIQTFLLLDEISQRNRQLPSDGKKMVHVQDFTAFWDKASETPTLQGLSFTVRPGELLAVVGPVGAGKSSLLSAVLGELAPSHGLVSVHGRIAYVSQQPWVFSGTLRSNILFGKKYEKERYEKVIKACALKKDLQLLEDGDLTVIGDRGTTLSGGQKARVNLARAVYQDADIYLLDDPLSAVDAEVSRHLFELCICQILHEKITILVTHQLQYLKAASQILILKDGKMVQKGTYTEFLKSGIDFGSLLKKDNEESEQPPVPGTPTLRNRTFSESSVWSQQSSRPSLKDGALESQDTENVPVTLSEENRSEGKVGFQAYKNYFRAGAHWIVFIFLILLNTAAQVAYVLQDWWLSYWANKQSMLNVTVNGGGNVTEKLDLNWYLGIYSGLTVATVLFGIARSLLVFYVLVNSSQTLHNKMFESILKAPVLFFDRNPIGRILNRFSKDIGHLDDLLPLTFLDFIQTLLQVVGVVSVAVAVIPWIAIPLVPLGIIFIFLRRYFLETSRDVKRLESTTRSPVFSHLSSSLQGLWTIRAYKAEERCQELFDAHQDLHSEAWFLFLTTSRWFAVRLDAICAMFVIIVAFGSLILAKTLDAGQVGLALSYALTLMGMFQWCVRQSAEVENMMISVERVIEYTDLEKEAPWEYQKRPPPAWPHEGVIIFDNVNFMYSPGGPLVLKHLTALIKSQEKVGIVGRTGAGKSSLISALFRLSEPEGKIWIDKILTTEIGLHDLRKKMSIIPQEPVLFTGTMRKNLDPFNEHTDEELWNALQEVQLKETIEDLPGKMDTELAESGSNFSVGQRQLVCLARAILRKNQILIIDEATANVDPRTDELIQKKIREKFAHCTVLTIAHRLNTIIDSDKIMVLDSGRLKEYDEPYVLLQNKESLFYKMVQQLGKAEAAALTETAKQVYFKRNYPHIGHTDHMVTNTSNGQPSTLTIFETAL

[4] = target: ATP-binding cassette sub-family C member 2 (Homo sapiens, UniProt Q92887); test: Inhibition of human MRP2 overexpressed in Sf9 cell membrane vesicles assessed as uptake of [3H]-estradiol-17beta-D-glucuronide in presence of ATP and GSH measured after 20 mins by membrane vesicle transport assay
Sequence of ATP-binding cassette sub-family C member 2 (Q92887 whole entry): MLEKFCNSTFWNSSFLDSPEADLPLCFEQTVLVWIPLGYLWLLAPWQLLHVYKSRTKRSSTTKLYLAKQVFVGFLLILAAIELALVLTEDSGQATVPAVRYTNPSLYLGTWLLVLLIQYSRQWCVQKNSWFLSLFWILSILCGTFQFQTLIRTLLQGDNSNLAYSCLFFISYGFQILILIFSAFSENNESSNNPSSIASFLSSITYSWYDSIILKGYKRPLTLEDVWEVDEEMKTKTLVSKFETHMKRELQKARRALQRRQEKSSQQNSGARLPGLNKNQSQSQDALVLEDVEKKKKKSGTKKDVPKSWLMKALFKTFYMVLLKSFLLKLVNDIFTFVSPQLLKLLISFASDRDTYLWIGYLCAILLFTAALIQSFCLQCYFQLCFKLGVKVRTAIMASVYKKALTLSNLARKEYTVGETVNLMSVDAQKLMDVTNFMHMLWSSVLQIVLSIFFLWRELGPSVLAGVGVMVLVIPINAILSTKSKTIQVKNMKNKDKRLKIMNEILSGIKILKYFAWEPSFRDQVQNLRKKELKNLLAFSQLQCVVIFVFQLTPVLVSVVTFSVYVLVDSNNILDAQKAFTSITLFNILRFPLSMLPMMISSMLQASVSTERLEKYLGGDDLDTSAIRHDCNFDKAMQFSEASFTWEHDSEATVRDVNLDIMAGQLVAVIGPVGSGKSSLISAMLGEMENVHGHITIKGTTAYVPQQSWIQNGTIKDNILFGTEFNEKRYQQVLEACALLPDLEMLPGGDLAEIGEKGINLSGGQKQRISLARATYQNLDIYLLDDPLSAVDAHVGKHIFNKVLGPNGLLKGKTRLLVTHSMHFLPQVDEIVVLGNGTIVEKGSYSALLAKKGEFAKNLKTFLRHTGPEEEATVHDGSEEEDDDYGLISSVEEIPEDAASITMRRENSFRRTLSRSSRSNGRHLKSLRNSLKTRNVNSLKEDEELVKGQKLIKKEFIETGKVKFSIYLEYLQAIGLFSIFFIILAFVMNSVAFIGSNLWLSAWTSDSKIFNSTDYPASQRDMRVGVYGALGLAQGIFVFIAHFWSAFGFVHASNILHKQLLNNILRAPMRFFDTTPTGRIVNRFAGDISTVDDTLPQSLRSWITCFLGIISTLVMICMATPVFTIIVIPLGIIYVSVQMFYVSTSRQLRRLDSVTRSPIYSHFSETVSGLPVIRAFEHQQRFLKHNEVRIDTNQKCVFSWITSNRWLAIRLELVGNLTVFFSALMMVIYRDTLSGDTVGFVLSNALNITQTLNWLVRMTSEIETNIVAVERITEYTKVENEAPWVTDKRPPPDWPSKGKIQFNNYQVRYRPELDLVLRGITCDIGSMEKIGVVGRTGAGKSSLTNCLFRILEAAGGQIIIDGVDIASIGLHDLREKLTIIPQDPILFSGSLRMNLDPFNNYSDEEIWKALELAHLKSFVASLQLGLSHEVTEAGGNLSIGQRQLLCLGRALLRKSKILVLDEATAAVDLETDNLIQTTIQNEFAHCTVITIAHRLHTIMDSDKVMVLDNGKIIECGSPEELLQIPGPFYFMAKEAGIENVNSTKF

[5] = Ratio of drug concentration at steady state in human at 0.1 to 1 mg, po QD after 24 hrs to IC50 for human MRP2 overexpressed in Sf9 insect cells; format: ADME, organism-based; details: in vivo
[6] = Ratio of drug concentration at steady state in human at 0.1 to 1 mg, po QD after 24 hrs to IC50 for human BSEP overexpressed in Sf9 insect cells; format: ADME, organism-based; details: in vivo
[7] = Drug concentration at steady state in human at 0.1 to 1 mg, po QD after 24 hrs; format: ADME, organism-based; details: in vivo, read-out: Css
[8] = AUC in human at 0.1 to 1 mg, po QD after 24 hrs; format: ADME, organism-based; details: in vivo
[9] = AUC in human at 10 mg, po after 24 hrs; format: ADME, organism-based; parameters: time < 24 hr, dose 10 mg, route oral; details: in vivo
[10] = Drug concentration at steady state in human at 10 mg, po after 24 hrs; format: ADME, organism-based; details: in vivo, read-out: Css
[11] = Ratio of drug concentration at steady state in human at 10 mg, po after 24 hrs to IC50 for human BSEP overexpressed in Sf9 insect cells; format: ADME, organism-based; details: in vivo
[12] = AUC in human at 2.5 to 10 mg, po QD after 24 hrs; format: ADME, organism-based; details: in vivo
[13] = Ratio of drug concentration at steady state in human at 2.5 to 10 mg, po QD after 24 hrs to IC50 for human BSEP overexpressed in Sf9 insect cells; format: ADME, organism-based; details: in vivo
[14] = Drug concentration at steady state in human at 2.5 to 10 mg, po QD after 24 hrs; format: ADME, organism-based; details: in vivo, read-out: Css
[15] = AUC in human at 5 to 10 mg, po QD after 24 hrs; format: ADME, organism-based; details: in vivo
[16] = Drug concentration at steady state in human at 5 to 10 mg, po QD after 24 hrs; format: ADME, organism-based; details: in vivo, read-out: Css
[17] = Ratio of drug concentration at steady state in human at 5 to 10 mg, po QD after 24 hrs to IC50 for human MRP4 overexpressed in Sf9 insect cells; format: ADME, organism-based; details: in vivo
[18] = Ratio of drug concentration at steady state in human at 5 to 10 mg, po QD after 24 hrs to IC50 for human BSEP overexpressed in Sf9 insect cells; format: ADME, organism-based; details: in vivo
[19] = Ratio of drug concentration at steady state in human at 1 ug/ml, po QD after 24 hrs to IC50 for human BSEP overexpressed in Sf9 insect cells; format: ADME, organism-based
[20] = AUC in human at 1 ug/ml, po QD after 24 hrs; format: ADME, organism-based; parameters: dose 1 ug/ml, time < 24 hr, route oral; details: in vivo
Homo sapiens = test: Drug concentration at steady state in human at 1 ug/ml, po QD after 24 hrs; format: ADME, organism-based; details: in vivo
[21] = AUC in human at 0.2 mg, po QID after 6 hrs; format: ADME, organism-based; parameters: time < 6 hr, dose 0.2 mg, route oral; details: in vivo
[22] = Ratio of drug concentration at steady state in human at 0.2 mg, po QID after 6 hrs to IC50 for human BSEP overexpressed in Sf9 insect cells; format: ADME, organism-based; details: in vivo
[23] = Ratio of drug concentration at steady state in human at 0.2 mg, po QID after 6 hrs to IC50 for human MRP4 overexpressed in Sf9 insect cells; format: ADME, organism-based; details: in vivo
[24] = Drug concentration at steady state in human at 9 mg, po QD after 24 hrs; format: ADME, organism-based; details: in vivo, read-out: Css
[25] = Ratio of drug concentration at steady state in human at 9 mg, po QD after 24 hrs to IC50 for human MRP4 overexpressed in Sf9 insect cells; format: ADME, organism-based; details: in vivo
[26] = Ratio of drug concentration at steady state in human at 9 mg, po QD after 24 hrs to IC50 for human MRP3 overexpressed in Sf9 insect cells; format: ADME, organism-based; details: in vivo
[27] = Ratio of drug concentration at steady state in human at 9 mg, po QD after 24 hrs to IC50 for human BSEP overexpressed in Sf9 insect cells; format: ADME, organism-based; details: in vivo
[28] = AUC in human at 9 mg, po QD after 24 hrs; format: ADME, organism-based; parameters: time < 24 hr, dose 9 mg, route oral; details: in vivo
[29] = Drug concentration at steady state in human at 1 to 40 mg, po QD after 24 hrs; format: ADME, organism-based; details: in vivo, read-out: Css
[30] = AUC in human at 1 to 40 mg, po QD after 24 hrs; format: ADME, organism-based; details: in vivo
[31] = Drug concentration at steady state in human at 5 to 30 mg, po QD after 24 hrs; format: ADME, organism-based; details: in vivo, read-out: Css
[32] = AUC in human at 5 to 30 mg, po QD after 24 hrs; format: ADME, organism-based; details: in vivo

SMILES | pIC50 [1] | pIC50 (Bile salt export pump) | pIC50 [3] | pIC50 [4] | other results
CCOC(=O)N1CCC(=C2c3ccc(Cl)cc3CCc3cccnc32)CC1 [LORATADINE] | < 3.88 | 4.92 | < 3.88 | < 3.88 | concentration at 24 h [2]: 1 nM; AUC at 24 h (clinical): 0.029 µM·h
COC(=O)[C@H]1[C@H]2C[C@@H]3c4[nH]c5cc(OC)ccc5c4CCN3C[C@H]2C[C@@H](OC(=O)c2cc(OC)c(OC)c(OC)c2)[C@@H]1OC [RESERPINE] | < 3.88 |  | < 3.88 | 4.16 | Ratio [5]: 0; Ratio [6]: 0.00007; concentration at 24 h [7]: 1 nM; AUC at 24 h [8]: 0.014 µM·h
O=C1[C@H](CC[C@H](O)c2ccc(F)cc2)[C@@H](c2ccc(O)cc2)N1c1ccc(F)cc1 [EZETIMIBE] | < 3.88 | 4.25 | < 3.88 | < 3.88 | AUC at 24 h [9]: 3.2 µM·h; concentration at 24 h [10]: 134 nM; Ratio [11]: 0.002
CCOC(=O)C1=C(C)NC(C)=C(C(=O)OC)C1c1cccc(Cl)c1Cl (centres undefined) [FELODIPINE] | < 3.88 | 4.16 | < 3.88 | < 3.88 | AUC at 24 h [12]: 0.107 µM·h; Ratio [13]: 0.00006; concentration at 24 h [14]: 4 nM
CC(=O)O[C@]1(C(C)=O)CC[C@H]2[C@@H]3C[C@H](C)C4=CC(=O)CC[C@]4(C)[C@H]3CC[C@@]21C [MEDROXYPROGESTERONE ACETATE] | < 3.88 | 4.80 | 4.65 | < 3.88 | AUC at 24 h [15]: 0.016 µM·h; concentration at 24 h [16]: 1 nM; Ratio [17]: 0; Ratio [18]: 0.00004
C=C1/C(=C\C=C2/CCC[C@]3(C)[C@@H]([C@H](C)CCCC(C)(C)O)CC[C@@H]23)C[C@@H](O)C[C@@H]1O [CALCITRIOL] | < 3.88 | 4.40 | < 3.88 | < 3.88 | Ratio [19]: 1.6e-6; AUC at 24 h [20]: 0.002 µM·h; Css (Homo sapiens): 0 nM
CCCC[C@](C)(O)C/C=C/[C@H]1[C@H](O)CC(=O)[C@@H]1CCCCCCC(=O)OC | < 3.88 | 4.56 | 4.34 | < 3.88 | AUC at 6 h [21]: 0.001 µM·h; Ratio [22]: 0.00001; Ratio [23]: 0
CCCC1O[C@@H]2C[C@H]3[C@@H]4CCC5=CC(=O)C=C[C@]5(C)[C@H]4[C@@H](O)C[C@]3(C)[C@]2(C(=O)CO)O1 (some centres undefined) [BUDESONIDE] | 4.26 | 4.34 | 4.43 | < 3.88 | concentration at 24 h [24]: 0.629 nM; Ratio [25]: 0; Ratio [26]: 0; Ratio [27]: 0.00001; AUC at 24 h [28]: 0.0151 µM·h
Cl.OCCN1CCN(CCCN2c3ccccc3Sc3ccc(C(F)(F)F)cc32)CC1 | < 3.88 | 4.06 | < 3.88 | < 3.88 | concentration at 24 h [29]: 1 nM; AUC at 24 h [30]: 0.03 µM·h
CCN(CC)CC#CCOC(=O)C(O)(c1ccccc1)C1CCCCC1 (centres undefined) [OXYBUTYNIN] | < 3.88 |  | < 3.88 | < 3.88 | concentration at 24 h [31]: 2 nM; AUC at 24 h [32]: 0.039 µM·h
